In brackets after ≈: the same amount, converted by molar mass.
Assays:
Aspergillus terreus = assay: MIC, YAG medium, Aspergillus terreus; assay type: cell-based; conditions: Aspergillus terreus; YAG medium; read-out: MIC A Terreus 4
In short: (§1)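 In YAG medium (1% glucose, 1% ammonium chloride, 0.5% yeast extract), Aspergillus strains at 1-2×10^4 cfu/ml were read after 24 hrs at 35° C, with MIC at >70% growth inhibition by OD485. C. albicans was run in MOPS-buffered RPMI, pH7.0, at 1-2×10^3 cfu/ml for 24-48 hrs, with MIC at >80% inhibition. The drug range was 50-0.05 mg/L.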

A Terreus 49 = assay: MIC, YAG medium, A Terreus 49; assay type: cell-based, Aspergillus terreus; conditions: Aspergillus terreus; YAG medium; read-out: MIC A Terreus 49
Experimental: Measurement of Minimum Inhibitory Concentrations (MICs)
Between 1 and 5 mgs of compound were accurately weighed out into a sterile Eppendorf tube. The compound was dissolved in DMSO to give a solution containing 5 mg/ml. Tubes were stored at −20° C. until required.
On the day of testing thawed solutions were vortex mixed to ensure homogeneity. 30 μl of solution was removed and added to 570 μl of sterile water in a separate sterile Eppendorf. The thoroughly mixed solution was used to prepare a series of doubling dilutions in water, in a deep well plate. Eleven replicate plates were prepared using a Minitrak by aspirating 20 μl from each well into eleven clear polystyrene 96 well plates.
Spores of Aspergillus spp (Aspergillus fumigatus, Aspergillus terreus, Aspergillus niger and Aspergillus flavus) were harvested from cultures grown on Sabarauds agar for 5 days, and resuspended in PBS/Tween 80 to approx 1×10^7 cfu/ml Other filamentous fungi (Fusarium solani, Scedosporium spp., Trichophyton spp., Absidia corymbifera), were grown on Sabarauds agar for 2-10 days and spores/hyphae resuspended in PBS/Tween to give approx 1×10^7 cfU/ml. Candida species (Candida albicans, Candida glabrata, Candida krusei, Candida parapsilosis and Candida tropicalis) were grown on Sabarauds agar, cells were harvested from the agar using a sterile loop and resuspended in PBS/Tween 80 to approx 1×10^6 cfu/ml. Each organism suspension was diluted in RPMI medium, containing 2% glucose and 0.135M MOPS buffer (pH7.0) to 2×10^4 cfu/ml for Aspergillus spp and other filamentous fungi and 2×10^3 cfu/ml for yeast. 80 μl of an organism suspension was added to each well of the plate containing drug dilutions.
This produced MIC plates with a drug range 50-0.05 mg/L and organism inocula of 1-2×10^4 cfu/ml for Aspergillus spp and other filamentous fungi and 1-2×10^3 cfu/ml for yeasts. All plates were incubated for 24-48 hrs at 35° C. Growth was assessed by monitoring the optical density at 485 nm for each well. The MIC of a compound is the lowest drug concentration that inhibits growth of an organism by >80% compared with a drug free control. MICs are recorded as mg/L. Other growth media can be used for susceptibility testing, and the activity of the described compounds can also be assessed in a medium comprising, 1% glucose, 1% ammonium chloride and 0.5% yeast extract (YAG medium). To perform MIC tests in this medium, dilutions of compounds are prepared in microtitre plates as described above. Fungal strains to be tested are grown and harvested in an identical manner to that described above, each organism suspension is then diluted in YAG medium to 2×10^4 cfu/ml for Aspergillus spp and other filamentous fungi and 2×10^3 cfu/ml for yeast. 80 μl of an organism suspension was added to each well of the plate containing drug dilutions. This produced MIC plates with a drug range 50-0.05 mg/L and organism inocula of 1-2×10^4 cfu/ml for Aspergillus spp and other filamentous fungi and 1-2×10^3 cfu/ml for yeasts. All plates were incubated for 24 hrs at 35° C. Growth was assessed by monitoring the optical density at 485 nm for each well. The MIC of a compound is the lowest drug concentration that inhibits growth of an organism by >70% compared with a drug free control. MICs are recorded as mg/L. In cases where the MIC of an organism is […]0.05 mg/L the MIC is repeated using a concentration range of 0.5-0.0005 mg/L. MIC tests in YAG medium have more clear-cut endpoints and have slightly lower MICS than those performed in RPMI medium.
The following organisms were tested: Aspergillus fumigatus AF293 and Aspergillus fumigatus AF210, Aspergillus niger, Aspergillus terreus, Aspergillus favus, Candida albicans, Candida krusei, Candida tropicalis, Candida glabrata, Candida parapsilosis, Trichophyton rubrum, Trichophyton mentagrophytes, Scedosporium prolificans, Scedosporium apiospermum, Absidia corymbifera, Fusarium solani.

Aspergillus flavus = assay: MIC, YAG medium, Aspergillus flavus; assay type: cell-based; conditions: Aspergillus flavus; YAG medium; read-out: MIC A Flavus 01
In short: as §1

Aspergillus niger = assay: MIC, YAG medium, Aspergillus niger; assay type: cell-based; conditions: Aspergillus niger; YAG medium; read-out: MIC A Niger 1
In short: as §1

[1] = system: Aspergillus fumigatus AF293; assay: MIC, YAG medium, Aspergillus fumigatus AF293; assay type: cell-based; conditions: Aspergillus fumigatus, AF293; YAG medium; read-out: MIC A Fum. 293
In short: as §1

[2] = system: Aspergillus fumigatus AF210; assay: MIC, YAG medium, Aspergillus fumigatus AF210; assay type: cell-based; conditions: Aspergillus fumigatus, AF210; YAG medium; read-out: MIC A Fum. 210
In short: as §1

Compound | MIC (Aspergillus terreus) | MIC (A Terreus 49) | MIC (Aspergillus flavus) | MIC (Aspergillus niger) | MIC [1] | MIC [2]
COC(=O)c1ccc(NC(=O)C(=O)c2c(-c3ccccc3)cc3ccccn23)cc1 [Example 140, 4-[2-Oxo-2-(2-phenyl-indolizin-3-yl)-acetylamino]-benzoic acid methyl ester] | 0.031 µg/mL (≈ 0.0778 µM) | 0.015 µg/mL (≈ 0.0376 µM) | 0.031 µg/mL (≈ 0.0778 µM) | 0.031 µg/mL (≈ 0.0778 µM) | 0.12 µg/mL (≈ 0.301 µM) | 0.12 µg/mL (≈ 0.301 µM)
COC(=O)c1cccc(NC(=O)C(=O)c2c(-c3ccccc3)cc3ccccn23)c1 [Example 141, 3-[2-Oxo-2-(2-phenyl-indolizin-3-yl)-acetylamino]-benzoic acid methyl ester] | 0.031 µg/mL (≈ 0.0778 µM) | 0.015 µg/mL (≈ 0.0376 µM) | 0.008 µg/mL (≈ 0.0201 µM) | 0.25 µg/mL (≈ 0.627 µM) | 0.12 µg/mL (≈ 0.301 µM) | 0.12 µg/mL (≈ 0.301 µM)
CCCOC(=O)c1ccc(NC(=O)C(=O)c2c(-c3ccccc3)cc3ccccn23)cc1 [Example 143, 4-[2-Oxo-2-(2-phenyl-indolizin-3-yl)-acetylamino]-benzoic acid propyl ester] | 0.031 µg/mL (≈ 0.0727 µM) | 0.008 µg/mL (≈ 0.0188 µM) | 0.031 µg/mL (≈ 0.0727 µM) | 0.015 µg/mL (≈ 0.0352 µM) | 0.061 µg/mL (≈ 0.143 µM) | 0.06 µg/mL (≈ 0.141 µM)
CCCCOC(=O)c1ccc(NC(=O)C(=O)c2c(-c3ccccc3)cc3ccccn23)cc1 [Example 144, 4-[2-Oxo-2-(2-phenyl-indolizin-3-yl)-acetylamino]-benzoic acid butyl ester] | 0.062 µg/mL (≈ 0.141 µM) | 0.008 µg/mL (≈ 0.0182 µM) | 0.015 µg/mL (≈ 0.0341 µM) | 0.008 µg/mL (≈ 0.0182 µM) | 0.06 µg/mL (≈ 0.136 µM) | 0.062 µg/mL (≈ 0.141 µM)
COc1ccc(NC(=O)C(=O)c2c(-c3ccccc3)cc3ccccn23)c(OC)c1 [Example 145, N-(2,4-Dimethoxy-phenyl)-2-oxo-(2-phenyl-indolizin-3-yl)-acetamide] | 0.031 µg/mL (≈ 0.0774 µM) | 0.004 µg/mL (≈ 0.00999 µM) | 0.031 µg/mL (≈ 0.0774 µM) | 0.031 µg/mL (≈ 0.0774 µM) | 0.5 µg/mL (≈ 1.25 µM) | 0.5 µg/mL (≈ 1.25 µM)
COc1ccc(NC(=O)C(=O)c2c(-c3ccccc3)cc3ccccn23)cn1 [Example 146, N-(6-Methoxy-pyridin-3-yl)-2-oxo-2-(2-phenyl-indolizin-3-yl)-acetamide] | 0.062 µg/mL (≈ 0.167 µM) | 0.03 µg/mL (≈ 0.0808 µM) | 0.062 µg/mL (≈ 0.167 µM) | 0.25 µg/mL (≈ 0.673 µM) | 0.5 µg/mL (≈ 1.35 µM) | 0.5 µg/mL (≈ 1.35 µM)
COc1ccc(NC(=O)C(=O)c2c(-c3cccs3)cc3ccccn23)cc1 [Example 148, N-(4-Methoxy-phenyl)-2-oxo-2-(2-thiophen-2-yl-indolizin-3-yl)-acetamide] | 0.008 µg/mL (≈ 0.0213 µM) | 0.008 µg/mL (≈ 0.0213 µM) | 0.008 µg/mL (≈ 0.0213 µM) | 0.062 µg/mL (≈ 0.165 µM) | 0.12 µg/mL (≈ 0.319 µM) | 0.12 µg/mL (≈ 0.319 µM)
COc1ccc(NC(=O)C(=O)c2c(-c3ccc(F)cc3)cc3ccccn23)c(OC)c1 [Example 149, N-(2,4-Dimethoxy-phenyl)-2-[2-(4-fluoro-phenyl)-indolizin-3-yl]-2-oxo-acetamide] | 0.06 µg/mL (≈ 0.143 µM) | 0.031 µg/mL (≈ 0.0741 µM) | 0.031 µg/mL (≈ 0.0741 µM) | 0.031 µg/mL (≈ 0.0741 µM) | 0.5 µg/mL (≈ 1.19 µM) | 1.6 µg/mL (≈ 3.82 µM)
N#Cc1ccc(NC(=O)C(=O)c2c(-c3ccccc3)cc3ccccn23)cc1 [Example 150, N-(4-Cyano-phenyl)-2-oxo-2-(2-phenyl-indolizin-3-yl)-acetamide] | 0.5 µg/mL (≈ 1.37 µM) | 0.12 µg/mL (≈ 0.328 µM) | 0.125 µg/mL (≈ 0.342 µM) | 0.25 µg/mL (≈ 0.684 µM) | 1.6 µg/mL (≈ 4.38 µM) | 1.6 µg/mL (≈ 4.38 µM)
COC(=O)c1csc(NC(=O)C(=O)c2c(-c3ccccc3)cc3ccccn23)c1 [Example 154, 5-[2-Oxo-2-(2-phenyl-indolizin-3-yl)-acetylamino]-thiophene-3-carboxylic acid methyl ester] | 0.8 µg/mL (≈ 1.98 µM) | 0.12 µg/mL (≈ 0.297 µM) | 0.25 µg/mL (≈ 0.618 µM) | 0.05 µg/mL (≈ 0.124 µM) | 1.6 µg/mL (≈ 3.96 µM) | 1.6 µg/mL (≈ 3.96 µM)
COc1ccc(NC(=O)C(=O)c2c(-c3ccc(F)cc3)cc3ccccn23)cc1 [Example 155, 2-[2-(4-Fluoro-phenyl)-indolizin-3-yl]-N-(4-methoxy-phenyl)-2-oxo-acetamide] | 0.031 µg/mL (≈ 0.0798 µM) | 0.008 µg/mL (≈ 0.0206 µM) | 0.03 µg/mL (≈ 0.0772 µM) | 0.12 µg/mL (≈ 0.309 µM) | 0.5 µg/mL (≈ 1.29 µM) | 0.12 µg/mL (≈ 0.309 µM)
Cc1ccc(NC(=O)C(=O)c2c(-c3ccc(F)cc3)cc3ccccn23)cc1 [Example 156, 2-[2-(4-Fluoro-phenyl)-indolizin-3-yl]-2-oxo-N-p-tolyl-acetamide] | 0.031 µg/mL (≈ 0.0832 µM) | 0.015 µg/mL (≈ 0.0403 µM) | 0.015 µg/mL (≈ 0.0403 µM) | 0.031 µg/mL (≈ 0.0832 µM) | 0.25 µg/mL (≈ 0.671 µM) | 0.25 µg/mL (≈ 0.671 µM)
Cc1ccc(NC(=O)C(=O)c2c(-c3cccs3)cc3ccccn23)cc1 [Example 165, 2-Oxo-2-(2-thiophen-2-yl-indolizin-3-yl)-N-p-tolyl-acetamide] | 0.06 µg/mL (≈ 0.166 µM) | 0.062 µg/mL (≈ 0.172 µM) | 0.062 µg/mL (≈ 0.172 µM) | 0.25 µg/mL (≈ 0.694 µM) | 0.8 µg/mL (≈ 2.22 µM) | 1.6 µg/mL (≈ 4.44 µM)
COc1ccc(NC(=O)C(=O)c2c(-c3cccs3)cc3ccccn23)c(OC)c1 [Example 166, N-(2,4-Dimethoxy-phenyl)-2-oxo-2-(2-thiophen-2-yl-indolizin-3-yl)-acetamide] | 0.12 µg/mL (≈ 0.295 µM) | 0.062 µg/mL (≈ 0.153 µM) | 0.12 µg/mL (≈ 0.295 µM) | 0.25 µg/mL (≈ 0.615 µM) | 1.6 µg/mL (≈ 3.94 µM) | 3.1 µg/mL (≈ 7.63 µM)
COc1ccc(NC(=O)C(=O)c2c(-c3cccs3)cc3ccccn23)cn1 [Example 167, N-(6-Methoxy-pyridin-3-yl)-2-oxo-2-(2-thiophen-2-yl-indolizin-3-yl)-acetamide] | 0.25 µg/mL (≈ 0.662 µM) | 0.062 µg/mL (≈ 0.164 µM) | 0.062 µg/mL (≈ 0.164 µM) | 0.5 µg/mL (≈ 1.32 µM) | 1.6 µg/mL (≈ 4.24 µM) | 1.6 µg/mL (≈ 4.24 µM)
Cc1ccc(NC(=O)C(=O)c2c(-c3cccnc3)cc3ccccn23)cc1 [Example 173, 2-Oxo-2-(2-pyridin-3-yl-indolizin-3-yl)-N-p-tolyl-acetamide] | 0.12 µg/mL (≈ 0.338 µM) | 0.12 µg/mL (≈ 0.338 µM) | 0.12 µg/mL (≈ 0.338 µM) | 0.5 µg/mL (≈ 1.41 µM) | 0.5 µg/mL (≈ 1.41 µM) | 0.4 µg/mL (≈ 1.13 µM)
COc1ccc2cc(-c3ccccc3)c(C(=O)C(=O)Nc3ccc(C)cc3)n2c1 [Example 196, 2-(6-Methoxy-2-phenyl-indolizin-3-yl)-2-oxo-N-p-tolyl-acetamide] | 0.12 µg/mL (≈ 0.312 µM) | 0.062 µg/mL (≈ 0.161 µM) | 0.12 µg/mL (≈ 0.312 µM) | 0.5 µg/mL (≈ 1.3 µM) | 0.8 µg/mL (≈ 2.08 µM) | 0.8 µg/mL (≈ 2.08 µM)
O=C(Nc1ccc(F)cc1)C(=O)c1c(-c2ccccc2)cc2ccccn12 [Example 200, N-(4-Fluoro-phenyl)-2-oxo-2-(2-phenyl-indolizin-3-yl)-acetamide] | 0.015 µg/mL (≈ 0.0419 µM) | 0.015 µg/mL (≈ 0.0419 µM) | 0.062 µg/mL (≈ 0.173 µM) | 0.031 µg/mL (≈ 0.0865 µM) | 0.25 µg/mL (≈ 0.698 µM) | 0.25 µg/mL (≈ 0.698 µM)
O=C(Nc1ccccc1F)C(=O)c1c(-c2ccccc2)cc2ccccn12 [Example 201, N-(2-Fluoro-phenyl)-2-oxo-2-(2-phenyl-indolizin-3-yl)-acetamide] | 0.015 µg/mL (≈ 0.0419 µM) | 0.015 µg/mL (≈ 0.0419 µM) | 0.12 µg/mL (≈ 0.335 µM) | 0.015 µg/mL (≈ 0.0419 µM) | 0.5 µg/mL (≈ 1.4 µM) | 0.25 µg/mL (≈ 0.698 µM)

Source: patent US8486962B2, “Antifungal agents” (F2G Ltd., priority 2005, dated 2013)
